# Measurements reported in article PMC5824708 (EJNMMI Radiopharmacy and Chemistry, 2018).
# Key:
# [1] = tested on: nude mice bearing CHL-GLP-1 receptor positive tumor xenografts; conditions: mouse, in vivo
# Method: Animal studies complied with Swiss laws on animal protection and husbandry and were approved by the Veterinary office of the Canton Zurich. After an acclimatization period, tumor xenografts were produced in 6-week old female CD1 nu/nu mice by subcutaneous injection in both shoulder regions of CHL-GLP-1 receptor positive cells (8 × 10^6 cells/mouse in PBS (100 μL, pH 7.4)) under 2%–3% isoflurane anaesthesia. Ex vivo biodistribution experiments were conducted three weeks after the inoculation. PET imaging experiments were performed five weeks after the inoculation.
# Tumor-bearing mice (n = 12) were injected intravenously with ^18F-2 (200 kBq in 100 μL PBS, 1.3 pmol, 5.9 ng). The animals were sacrificed at 30 min, 1 h and 2 h post injection (n = 4 for each time point). To determine specific binding an additional group of tumor-bearing mice (n = 4) received nonradioactive precursor 1 (100 μg in 100 μL PBS, 22 nmol) co-injected with ^18F-2 (266 kBq in 100 μL PBS, 1.7 pmol, 7.8 ng) and were sacrificed 1 h post injection. Organs and tissues of interest were collected and weighed, and the amount of radioactivity was determined in a γ-counter (1480 Wizard, PerkinElmer) to calculate percentage uptake (% injected dose per gram of tissue). Statistical significance was calculated using Student t-test (two populations, unpaired). P values of less than 0.05 were considered statistically significant.
# [2] = tested on: CHL-GLP-1 tumor-bearing mouse; design: species or system mice; conditions: in vivo
# Method: Animal studies complied with Swiss laws on animal protection and husbandry and were approved by the Veterinary office of the Canton Zurich. After an acclimatization period, tumor xenografts were produced in 6-week old female CD1 nu/nu mice by subcutaneous injection in both shoulder regions of CHL-GLP-1 receptor positive cells (8 × 10^6 cells/mouse in PBS (100 μL, pH 7.4)) under 2%–3% isoflurane anaesthesia. Ex vivo biodistribution experiments were conducted three weeks after the inoculation. PET imaging experiments were performed five weeks after the inoculation. Two tumor bearing mice were injected with ^18F-2 (13.0 MBq in 80 and 100 μL PBS containing ≤ 5% ethanol, 1.3 and 1.9 nmol) via lateral tail vein. Anaesthesia was induced with 5% isoflurane (Abbott) in O2/air 5 min before PET/CT acquisition. Depth of anaesthesia and temperature were controlled as described by Honer et al. (Honer et al. [2004]). PET/CT scans were performed under 2–3% isoflurane anaesthesia with a GE VISTA eXplore PET/CT tomograph. […] Standardized uptake values (SUV) were calculated as a ratio of tissue radioactivity concentration (kBq/cm^3) and injected activity dose per gram body weight (kBq/g) at the scan start. Percentage injected dose per gram of tissue (%ID/g) was calculated using SUV values: SUV / body weight [g] × 100% = %ID/g.
# [3] = tested on: dipeptidyl peptidase IV (DPP4); conditions: degradation by DPP4; ref Pauly et al. [1999]; cited from earlier work
# From the text: The glucagon-like peptide type 1 receptor (GLP-1R) is overexpressed in virtually all benign insulinoma with high incidence and density and is considered a valuable target for the efficient visualisation by radiotracers (Reubi and Waser [2003]; Wild et al. [2011]; Wild et al. [2008]; Korner et al. [2012]). The natural ligand released from ileal L-cells, glucagon-like peptide 1 (GLP-1) stimulates the insulin secretion in β-cells by binding to the GLP-1R.
Substance,tumor to blood ratio [1],Tumor to background ratio [2],metabolic half-life [3]
His-Gly-Glu-Gly-Thr-Phe-Thr-Ser-Asp-Leu-Ser-Lys-Gln-Nle-Glu-Glu-Glu-Ala-Val-Arg-Leu-Phe-Ile-Glu-Trp-Leu-Lys-Asn-Gly-Gly-Pro-Ser-Ser-Pro-Ala-Pro-Pro-Pro-Ser-Lys-(N ^6 –2-(4-(di-tert-butylfluorosilyl)phenyl)acetyl)-NH 2 [^18F-2],4 ± 2,~ 3,
GLP-1: natural ligand of GLP-1R released from ileal L-cells,,,less than 2 min
